# Laboratory results taken from patent US20230149515A1, “INHIBITION OF SARS-COV-2 VIRAL ENTRY THROUGH ORAL ADMINISTRATION OF L[…] USES THEREOF” (priority 2020, published 2023).
# System: SARS-CoV-2
# Assay type: cell-based
# Conditions: positive control; Huh7 cells; FIG. 1 (50 nanomolar Remdesivir)
structure (smiles),measurement,value
"CCC(CC)COC(=O)[C@H](C)N[P@](=O)(OC[C@H]1O[C@@](C#N)(c2ccc3c(N)ncnn23)[C@H](O)[C@@H]1O)Oc1ccccc1 [Remdesivir, reference compound]",efficacy in SARS-CoV-2 infectivity assay,100%
